Test results reported in patent US20220016092A1, “METHODS FOR TREATING SYMPTOMS AND DISORDERS ASSOCIATED WITH LYSOSOMAL STORAGE DISEASES” (GENZYME CORPORATION, priority 2019, published 2022).
Entries after “also recorded” stand apart in the source; their conditions may differ.

Experiments:
[1] = tested on: adult patients with Gaucher disease Type 3; assay: Clinical study in GD-3 patients: Scale for Assessment and Rating of Ataxia (SARA); format: in vivo, human; details: 15 mg/day + imiglucerase
Protocol: The degree of ataxia at baseline and throughout the study was evaluated by the Scale for Assessment and Rating of Ataxia (SARA; Schmitz-Hübsch et al. [2006]), which assesses eight distinct attributes of cerebellar ataxia on a scale of 0-40. The eight attributes are gait, stance, sitting, speech disturbance, finger chase, nose-finger test, fast alternate hand movement, and heel-shin slide. SARA ataxia scoring results for all six patients is presented in the chart below: […]

[2] = tested on: adult patients with Gaucher disease Type 3; assay: Clinical study in GD-3 patients: interstitial lung disease by high-resolution CT; format: in vivo, human; details: 15 mg/day + imiglucerase
Protocol: During the study patients were evaluated for safety and tolerability, CSF and plasma biomarkers (glucosylceramide, GL-1; glucosylsphingosine, lyso-GL1), pharmacokinetics, markers for systemic disease (spleen and liver volume measured by magnetic resonance imaging (MRI), platelet count, hemoglobin levels), indicia of interstitial lung disease (high resolution pulmonary computed tomography (CT)), and horizontal saccadic eye movement.
Severity of interstitial lung disease was characterized by the percent of lung volume affect by ILD as measured by high-resolution CT in four lung regions (aortic arch, carina, lower zone L3, lower zone L4). Patients were rated as having severe ILD (51-100% of lung volume affected), moderate ILD (26-50% of lung volume affected), mild ILD (1-25% of lung volume affected) or normal (0% of lung volume showing ILD).

[3] = tested on: plasma GL-1, GL-3, and GM3; assay: Study 2: pharmacodynamics in healthy volunteers; format: in vivo, human; details: healthy adults; all dose groups (5, 10, 20 mg)
Protocol: The study enrolled and randomized 36 healthy adults (19 men and 17 women) (n=9 each to group).
Pharmacodynamic endpoints (plasma GL-1, GL-3, and GM3 concentrations) were assessed on Days 1-5, 8, 11, 13, and 14, at 0 hours […]; and on Day 15, at 24 hours after the Day 14 dose.

[4] = tested on: adult male Fabry patients; assay: Clinical study in Fabry disease patients: SF-36 bodily pain and abdominal pain; format: in vivo, human; details: 15 mg/day oral
Protocol: A three-year open-label investigation of Compound 2 in young classic Fabry disease patients was conducted in order to evaluate the long-term safety, pharmacodynamics and exploratory efficacy of Compound 2 in adult male Fabry patients. Eleven subjects enrolled in the study, and seven subjects completed all aspects of the study. All subjects were males diagnosed with classic Fabry disease confirmed by genotype and residual alpha-galactosidase activity below detection levels (9 of the 11 had nonsense mutation in the GLA gene). All subjects had lyso-GL3 levels in plasma of at least 65 ng/mL and had no prior Fabry disease-specific treatment. The median age of subject was 24 years (range 19-37).
Each sample was scored independently by 3 pathologists for the presence of GL-3 inclusions on a four-point scale, and rated as 0 (no/trace), 1 (mild), 2 (moderate), or 3 (severe) according to Eng et al., N. Engl. J. Med. 345:9-16 (2001). A single score per patient per time point was derived by taking the score rated by the majority of the three pathologists. If a majority score could not be derived, then the median score was used (resulting in some fractional scores). Plasma samples were also analyzed for GL-3, lyso-GL-3, GL-1 and GM3 at baseline and weeks 12, 26, 52 and 156. […]
Patients were assessed using the Short Form-36 (SF-36) questionnaire on numerous visits from baseline to week 156. This is a 36-item questionnaire used to measure 8 various aspects of health (vitality, physical functioning, bodily pain, general health perceptions, physical role functioning, emotional role functioning, social role functioning and mental health). The score for each of the eight aspects ranges from 0 (maximum disability) to 100 (no disability), and thus, higher scores indicate good health condition. In addition, gastrointestinal symptoms, including abdominal pain, abdominal distention, and bowl movements, were assessed using a modified version of the inflammatory bowel severity scoring system. Particular questions asked as part of these assessments included: (1) whether the patient suffered abdominal pain within the last ten days, (2) what was the severity of abdominal pain suffered in the last ten days using a 0 (no pain) to 100 (very severe pain) scale, and (3) on how many days within the last ten days did the patient have abdominal pain.

[5] = tested on: GM3 expression in B16 mouse melanoma cells; assay: GM3 fluorescent-linked immunosorbent assay (FLISA), B16 cells; format: cell-based; details: 48 hours
From the text: Inhibition of glucosylceramide synthase activity can be measured with one or more assays. A first assay is a microsomal assay that directly measures the conversion of ceramide to glucosylceramide by HPLC. Microsomes are a source of glucosylceramide synthase activity in the microsomal assay. A second assay is a cell based, phenotypic assay that monitors cell surface expression of the downstream lipid GM3 by antibody mediated immunofluorescence. Specific protocols are provided below.
This is a phenotypic assay that measures GM3 expression in B16 mouse melanoma or C32 human melanoma cells following treatment with test compounds. Cell surface GM3 expression is determined by antibody mediated fluorescence.
Compounds are diluted in media and plated in 384 well plates in DMSO. B16 and C32 cells are assayed at densities of 20,000 cells/ml and 62,500 cells/ml, respectively, per well. Each titration curve contains 10 points that are assayed in duplicate on each test run. The plates are incubated for 48 hours at 37° C., 5% CO2, and are then washed once with TBS. Anti-GM3 antibody is added to each well and the plates are then incubated for an additional one hour at room temperature. Plates are subsequently washed twice and incubated for an additional hour with the labeled secondary antibody. Following the final incubation, the plates are washed twice and the fluorescence at λex=D640/20 nm and λem=657 nm is detected on a fluorescent reader.
The results of the microsomal assays are expressed as “GCS IC50”, which represents the concentration of the compound causing 50% inhibition of glucosylceramide synthase activity. The results of the cell-based assays are expressed as “GM3 B16 IC50” or “GM3 C32 IC50” for the B16 assay and the C32 assay, respectively. These values represent the concentration of the compound causing 50% inhibition of GM3 expression on the cell surface.

[6] = Week 26, individual Patients 1-5

SMILES: CC(C)(NC(=O)O[C@@H]1CN2CCC1CC2)c1csc(-c2ccc(F)cc2)n1 [Compound 2, (S)-quinuclidin-3-yl 2-(2-(4-fluorophenyl)thiazol-4-yl)propan-2-ylcarbamate]
- Patients showing improvements in ataxia ([1]; 52 weeks): 5 of 6
- Patients exhibiting an improvement in ataxia, excluding Patient 5 ([1]; Week 52): 4 out of 5
- Mean improvement in SARA score, excluding Patient 5 ([1]; Week 52, SD=3.2): −0.9
- ILD severity, Aortic Arch Left [2, 6]: Norm (normal (0% of lung volume showing ILD)); also recorded: Mild (mild ILD (1-25% of lung volume affected))
- ILD severity, Aortic Arch Right [2, 6]: Norm (normal (0% of lung volume showing ILD)); also recorded: Mild (mild ILD (1-25% of lung volume affected))
- ILD severity, Carina Left [2, 6]: Norm (normal (0% of lung volume showing ILD)); also recorded: Mild (mild ILD (1-25% of lung volume affected))
- ILD severity, Carina Right [2, 6]: Norm (normal (0% of lung volume showing ILD)); also recorded: Mod (moderate ILD (26-50% of lung volume affected)); also recorded: Mild (mild ILD (1-25% of lung volume affected))
- ILD severity, Zone L3 Left [2, 6]: Norm (normal (0% of lung volume showing ILD)); also recorded: Mild (mild ILD (1-25% of lung volume affected))
- ILD severity, Zone L3 Right [2, 6]: Norm (normal (0% of lung volume showing ILD)); also recorded: Mild (mild ILD (1-25% of lung volume affected))
- ILD severity, Zone L4 Left [2, 6]: Norm (normal (0% of lung volume showing ILD)); also recorded: Mod (moderate ILD (26-50% of lung volume affected))
- ILD severity, Zone L4 Right [2, 6]: Norm (normal (0% of lung volume showing ILD)); also recorded: Mod (moderate ILD (26-50% of lung volume affected))
- Patients showing regression of ILD ([2]; after 26 weeks): 4 out of 5
- Plasma GL-3 over time [3]: decreased with time
- Number of Patients Reporting Yes to Abdominal Pain in 10-Days Preceding Visit ([4]; 4 weeks): 4/11
- Abdominal Pain Severity Score in 10-Days Preceding Visit (mean value, 0-100 scale) ([4]; 4 weeks (n = 4)): 29.75
- Number of Days within Preceding 10 Days with Abdominal Pain (mean value) ([4]; 4 weeks (n = 4)): 2.50
- Number of Patients Reporting Yes to Abdominal Pain in 10-Days Preceding Visit ([4]; 12 weeks): 2/10
- Abdominal Pain Severity Score in 10-Days Preceding Visit (mean value, 0-100 scale) ([4]; 12 weeks (n = 2)): 40.00
- Number of Days within Preceding 10 Days with Abdominal Pain (mean value) ([4]; 12 weeks (n = 2)): 3.50
- Number of Patients Reporting Yes to Abdominal Pain in 10-Days Preceding Visit ([4]; 26 weeks): 3/9
- Abdominal Pain Severity Score in 10-Days Preceding Visit (mean value, 0-100 scale) ([4]; 26 weeks (n = 3)): 31.33
- Number of Days within Preceding 10 Days with Abdominal Pain (mean value) ([4]; 26 weeks (n = 3)): 3.00
- Number of Patients Reporting Yes to Abdominal Pain in 10-Days Preceding Visit ([4]; 52 weeks): 2/7
- Abdominal Pain Severity Score in 10-Days Preceding Visit (mean value, 0-100 scale) ([4]; 52 weeks (n = 1)): 21.00
- Number of Days within Preceding 10 Days with Abdominal Pain (mean value) ([4]; 52 weeks (n = 3)): 0.70
- Number of Patients Reporting Yes to Abdominal Pain in 10-Days Preceding Visit ([4]; 104 weeks): 2/7
- Abdominal Pain Severity Score in 10-Days Preceding Visit (mean value, 0-100 scale) ([4]; 104 weeks (n = 1)): 21.00
- Number of Patients Reporting Yes to Abdominal Pain in 10-Days Preceding Visit ([4]; 156 weeks): 2/7
- Abdominal Pain Severity Score in 10-Days Preceding Visit (mean value, 0-100 scale) ([4]; 156 weeks (n = 2)): 15.00
- Number of Days within Preceding 10 Days with Abdominal Pain (mean value) ([4]; 156 weeks (n = 2)): 0.20
- Patients with decreased severity of abdominal pain, among those with gastrointestinal pain at baseline ([4]; week 26): four out of five
- Patients with improved overall bodily pain scores (SF-36) ([4]; week 26): Seven of nine
- Patients with reduced number of days with gastrointestinal pain ([4]; week 26): five of five
- Patients with decreased severity of abdominal pain, among those with gastrointestinal pain at baseline ([4]; week 156): four out of four
- Patients with improved overall bodily pain scores (SF-36) ([4]; week 156): three of six
- Patients with reduced number of days with gastrointestinal pain ([4]; week 156): three of four
- IC50 [5]: 0.107 µM
